Assay results published in the NIST ThermoML archive (doi:10.1016/j.jct.2004.07.014).
± gives the expanded uncertainty stated by the source.

Settings: Liquid, Closed cell (Static) method

- vapor or sublimation pressure (305.51 K): 16.47 ± 0.22 kPa
- vapor or sublimation pressure (323.12 K): 33.71 ± 0.25 kPa
- vapor or sublimation pressure (353.13 K): 96.17 ± 0.37 kPa
Structure (SMILES): CC#N [acetonitrile]
